Where a SMILES comes first, the peptide text is derived from it.
Legend:
PDK1 [1] = target: T1, PDK1 (Homo sapiens, UniProt O15530); test: PDK1 activity towards synthetic peptide substrates T308tide or PDKtide; format: biochemical; settings: substrate PDKtide
T1 construct: Full length PDK1 (residues 1-556); made in house; host or cells: 293 cells
T1 sequence (O15530 52-556): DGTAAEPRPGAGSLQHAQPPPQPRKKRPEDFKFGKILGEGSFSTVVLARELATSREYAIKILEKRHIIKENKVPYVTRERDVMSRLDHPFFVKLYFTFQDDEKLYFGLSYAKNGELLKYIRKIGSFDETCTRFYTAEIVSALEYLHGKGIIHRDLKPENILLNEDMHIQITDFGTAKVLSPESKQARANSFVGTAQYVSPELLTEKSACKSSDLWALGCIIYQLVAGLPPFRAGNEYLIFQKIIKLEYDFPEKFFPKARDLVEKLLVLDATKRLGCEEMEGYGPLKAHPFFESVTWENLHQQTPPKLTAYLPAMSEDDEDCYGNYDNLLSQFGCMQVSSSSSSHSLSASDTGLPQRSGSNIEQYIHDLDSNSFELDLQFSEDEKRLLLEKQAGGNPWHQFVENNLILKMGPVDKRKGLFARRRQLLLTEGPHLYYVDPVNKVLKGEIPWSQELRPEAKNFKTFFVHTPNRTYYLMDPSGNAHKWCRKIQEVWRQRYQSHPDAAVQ
Description: (§1) FIG. 12. PDK1 is activated and stabilised through its interaction with PIFtide. (A) GST-PDK1 activity was measured in the presence of increasing concentrations of wild type (wt) PIFtide (closed circles) or a mutant D978A PIFtide (open circles) using the synthetic peptide substrate termed T308tide, as described in Material and Methods. The data was fitted to a hyperbola using the Kaleidagraph™ software. The connection needed to obtain 50% activation of PDK1 was […] for wt-PIFtide and 1.1 μM for D978A-PIFtide. The assay shown was performed in triplicate and there was less than 5% difference between each assay. Similar results were obtained in 2 further experiments (B)—The wild type GST-PDK1 (circles) or the L155D mutant of GST-PDK1 (squares) was incubated in the presence (closed symbols) or absence (open symbols) of […] PIFtife and then for 2 min at the indicated temperatures, rapidly brought to 0° C. (see Materials and Methods), and 2 min later assayed at 30° C. for 10 min using T308tide as substrate. The activity of PDK1 obtained by incubation at 30° C. was taken as 100%. The assay shown was performed in duplicate with similar results obtained in two separate experiments.
(§2) FIG. 14. […] (A) His-PDK1 was assayed for activity using as substrate the indicated concentration of either PDKtide (open triangles) or T308tide (open circles). (B) HIS-PDK1 was assayed for activity in the presence if PDKtide (25 μM closed triangles) or T308tide (100 μM closed circles) in the presence of the indicated concentrations of PIFtide. The assay was performed in triplicates with less than 5% difference between the triplicate samples. Similar results were obtained in 3 separate experiments.
(§3) PDK1's ability to phosphorylate Thr308 of PKBα was measured using a mutant of GST-PKBα in which Ser473 was mutated to Asp (GST-473D PKBα) in the presence of phospholipid vesicles containing sn-1-stearoyl-2-arachidonoyl-D-PtdIns (3, 4, 5)P3 [13]. The ability of wild type and mutant PDK1 to phosphorylate the synthetic peptides T308tide or PDKtide was carried out in 20 μl assays containing 50 mM Tris/HCl pH 7.5, 0.1% 2-mercaptoethanol 10 mM MgCl2, 100 μM [γ^32P]ATP (˜500 cpm/pmol) 0.5 μM microcystin-LR.PDK1 and the peptide concentrations indicated under Results. After incubation for 10 min at 30° C. the reaction was stopped by addition of 20 μl of 150 mM phosphoric acid. 35 μl of the resultant mixture was spotted into P81 phosphocellulose paper (2×2 cm) and the papers washed and analysed as described previously for assays of MAP kinase. […] Control assays were carried out in parallel in which either PDK1, or peptide substrate were omitted; these values were always less than 5% of the activity measured in the presence of these reagents. […]

PDK1 [2] = test: as above; format: biochemical, human; settings: PDK1 L155 mutants
Description: as §1, §2, §3

## CC[C@H](C)[C@H](NC(=O)[C@H](Cc1ccc(O)cc1)NC(=O)[C@H](CC(=O)O)NC(=O)[C@H](Cc1ccccc1)NC(=O)[C@H](CC(=O)O)NC(=O)[C@H](CCCNC(=N)N)NC(=O)[C@H](Cc1ccccc1)NC(=O)[C@H](CCSC)NC(=O)[C@H](CCC(=O)O)NC(=O)[C@H](CCC(N)=O)NC(=O)[C@H](CCC(=O)O)NC(=O)[C@H](CCC(=O)O)NC(=O)[C@H](CCC(=O)O)NC(=O)[C@H](CO)NC(=O)[C@H](CC(C)C)NC(=O)[C@@H](NC(=O)[C@H](CCCNC(=N)N)NC(=O)[C@@H]1CCCN1C(=O)[C@H](CCC(=O)O)NC(=O)[C@@H](N)CCCNC(=N)N)[C@@H](C)CC)C(=O)N[C@@H](C)C(=O)N[C@@H](CC(=O)O)C(=O)N[C@@H](Cc1c[nH]c2ccccc12)C(=O)N[C@@H](CS)C(=O)O [PIFtide] (H-REPRILSEEEQEMFRDFDYIADWC-OH; N-terminus and C-terminus assumed)
PDK1 [1]
  effect on the activity of PDK1 towards PDKtide: inhibited
PDK1 [2]
  activation of L155A, L155S, L155D and L155E mutants of PDK1 towards T308tide: did not further activate
